Results from patent publication US20260000657A1, “ANTI-ANGIOGENIC THERAPY AS TREATMENT FOR BENIGN UTERINE DISORDERS” (STICHTING AMSTERDAM UMC, priority 2022, published 2026).

Columns and labels:
[1] = system: tamoxifen-induced adenomyosis in CD-1 mice; experiment: Oral axitinib treatment in tamoxifen-induced adenomyosis mouse model; format: in vivo
Method: After validation of the model, this model was used to test treatment with anti-vascular endothelial growth factor receptor 2 (VEGFR-2) tyrosine kinase inhibitor axitinib (A-1107; LC Laboratories). To induce adenomyosis, 108 mice received neonatal tamoxifen treatment and were randomly allocated to receive treatment or placebo. On day 42, anti-angiogenesis treatment commenced by oral axitinib treatment or placebo. Axitinib was dissolved in 0.5% sodium carboxymethylcellulose (CMC) at a dose of 25 mg/kg body weight (dose I) or at a dose of 3 mg/kg (dose II). All animals received treatment by daily oral gavage at 5 μl/g bodyweight with axitinib (dose I/II) or placebo (CMC) for a time period of three weeks. During this period, all animals had daily animal welfare observations, and were weighed at a minimum of three times per week. The experimental groups are depicted in FIG. 1.
The uteri were cut in half, one horn (right/left horn randomized) was fixed in 4% formaldehyde at room temperature for 48 hours.
Uterine tissue was embedded in paraffin and sliced into transverse oriented sections of 5 μm, with three sections of one uterine horn on one microscope slide. […] Paraffin-embedded sections were dewaxed in xylene, rehydrated in 100%, 96%, and 70% ethanol, and washed in PBS (pH 7.4). […] After washing in PBS, aspecific binding was blocked by 3% BSA/PBS for one hour. After adding primary antibodies diluted in 0.5% BSA/PBS, sections were incubated overnight at 4° C. […] After washing with PBS, horseradish peroxidase (HRP)—streptavidin (strep) was added (cat. no. ab6734; 1:200; Dako Cytomation) diluted in 0.5% BSA/PBS, for thirty minutes. The sections were then washed in PBS, afterwards 3,3′-Diaminobenzidine (DAB) was added (60 μl DAB; 1 μl 30% H2O2; 1 mL PBS), for eight minutes.

[2] = system: tamoxifen-induced adenomyosis in a murine model; experiment: Adenomyosis severity index (grade x affected surface area) in tamoxifen-induced adenomyosis murine model; format: in vivo, mice; conditions: dose II 3 mg/kg, post hoc p<0.05
Text: The adenomyosis severity index in tamoxifen-induced adenomyosis in a murine model has been determined based on the abovementioned results of grade of adenomyosis and adenomyosis-affected surface area. Specifically, the grade of adenomyosis (determined on H&E slides as described above) was multiplied by the adenomyosis-affected surface area (determined on vimentin-stained slides). The adenomyosis severity index is the average of all sections analyzed per uterine horn. The adenomyosis severity index was determined for placebo group (CMC-treated mice) and two axitinib-treated groups (dose II—AX3: axitinib 3 mg/kg; dose I—AX25: axitinib 25 mg/kg).

[3] = system: angiogenesis-related genes (VEGF-R1, VEGF-R2, VEGF-R3, VEGF-A, VEGF-B, CD31) in mouse uteri; experiment: Real-time quantitative PCR uterine gene expression profile after axitinib; format: in vivo, mice; conditions: RT-PCR
Method: To study the efficacy of axitinib treatment at the molecular level, the expression levels of vascular marker CD31 and angiogenic growth factors VEGF-A, VEGF-B, VEGF receptor R1 (VEGF-R1), VEGF-R2, VEGF-R3, placental growth factor PlGF, and collagen were measured. Real-time quantitative PCR was performed in a random selection of uterine specimens exposed to axitinib (dose II, n=7; dose I, n=6) or placebo (CMC, n=7). The expression of each gene was normalized to the household gene cyclophilin A.

[4] = system: tamoxifen-induced mice model; conditions: from week 16 of age; cited from earlier work
[5] = system: uterus of mice with tamoxifen-induced adenomyosis
Text: Sunitinib is another angiogenesis inhibitor and a highly-fluorescent molecule, therefore it will be used as a model drug to microscopically assess uptake and distribution in uterine tissue after termination.
Intra-uterine delivery of a gel containing slow-release Sunitinib in low dose will also be tested as an alternative treatment for oral Axinitib in mice with tamoxifen-induced adenomyosis.

[6] = system: uterine adenomyosis in SHN mice; conditions: cited from earlier work
CD-1 mice = experiment: Validation of tamoxifen-induced mouse adenomyosis model
[7] = system: human adenomyosis lesions xenografted in mice; conditions: administered 14 days after xenografting; cited from earlier work
[8] = dose I 25 mg/kg daily oral gavage three weeks
[9] = dose I 25 mg/kg daily oral gavage three weeks, N = 34
[10] = dose II 3 mg/kg daily oral gavage three weeks
[11] = dose II 3 mg/kg daily oral gavage three weeks, N = 34
[12] = tamoxifen 1 mg/kg oral day 2-5 after birth, six weeks, n = 6
[13] = tamoxifen 1 mg/kg, six weeks, n = 6

CNC(=O)c1ccccc1Sc1ccc2c(/C=C/c3ccccn3)n[nH]c2c1 [Axitinib, axitinib]
No signs of adenomyosis (% of mice) [1, 8]: 11,8%
Presented with adenomyosis (% of mice) [1, 8]: 88,2%
Adenomyosis No (number of mice) [1, 9]: 4
Adenomyosis Yes (number of mice) [1, 9]: 30
Weight end treatment, Mean [1, 9]: 29.9 g
Ectopic glands, median ([1]; dose I 25 mg/kg, N = 34): 3.0
Grade 0 (% of mice) ([1]; dose I 25 mg/kg, N = 34): (14.7%)
Grade 0 (number of mice) ([1]; dose I 25 mg/kg, N = 34): 5
Grade 1 (% of mice) ([1]; dose I 25 mg/kg, N = 34): (29.4%)
Grade 1 (number of mice) ([1]; dose I 25 mg/kg, N = 34): 10
Grade 2 (% of mice) ([1]; dose I 25 mg/kg, N = 34): (50.0%)
Grade 2 (number of mice) ([1]; dose I 25 mg/kg, N = 34): 17
Grade 3 (% of mice) ([1]; dose I 25 mg/kg, N = 34): (5.9%)
Grade 3 (number of mice) ([1]; dose I 25 mg/kg, N = 34): 2
Ratio thickest myometrium/transverse uterine diameter, median ([1]; dose I 25 mg/kg, N = 34): 0.18
Ratio thickest myometrium/uterine wall, median ([1]; dose I 25 mg/kg, N = 34): 0.49
Ratio thinnest myometrium/uterine wall, median ([1]; dose I 25 mg/kg, N = 34): 0.21
Ratio thinnest/thickest myometrium, median ([1]; dose I 25 mg/kg, N = 34): 0.26
Spread Diffuse (number of mice) ([1]; dose I 25 mg/kg, N = 34): 18
Spread Focal (number of mice) ([1]; dose I 25 mg/kg, N = 34): 8
Spread None (% of mice) ([1]; dose I 25 mg/kg, N = 34): (14.7%)
Spread None (number of mice) ([1]; dose I 25 mg/kg, N = 34): 5
Adenomyosis No (% of mice) ([1]; dose I + II pooled, N = 68): (14.9%)
Adenomyosis No (number of mice) ([1]; dose I + II pooled, N = 68): 10
Adenomyosis Yes (% of mice) ([1]; dose I + II pooled, N = 68): (85.1%)
Adenomyosis Yes (number of mice) ([1]; dose I + II pooled, N = 68): 57
Ectopic areas, Median ([1]; dose I + II pooled, N = 68): 1.3
Ectopic glands, median ([1]; dose I + II pooled, N = 68): 2.8
Grade 0/1 (% of mice) ([1]; dose I + II pooled, N = 68): (40.3%)
Grade 0/1 (number of mice) ([1]; dose I + II pooled, N = 68): 27
Grade 2/3 (% of mice) ([1]; dose I + II pooled, N = 68): (59.7%)
Grade 2/3 (number of mice) ([1]; dose I + II pooled, N = 68): 40
Spread Diffuse (% of mice) ([1]; dose I + II pooled, N = 68): (54.0%)
Spread Diffuse (number of mice) ([1]; dose I + II pooled, N = 68): 34
Spread Focal (% of mice) ([1]; dose I + II pooled, N = 68): (30.2%)
Spread Focal (number of mice) ([1]; dose I + II pooled, N = 68): 19
Spread None (% of mice) ([1]; dose I + II pooled, N = 68): (15.9%)
Spread None (number of mice) ([1]; dose I + II pooled, N = 68): 10
Weight end treatment, Mean ([1]; dose I + II pooled, N = 68): 28.7 g
No signs of adenomyosis (% of mice) [1, 10]: 14,7%
Presented with adenomyosis (% of mice) [1, 10]: 82,4%
Adenomyosis No (number of mice) [1, 11]: 5
Adenomyosis Yes (number of mice) [1, 11]: 28
Weight end treatment, Mean [1, 11]: 28.4 g
Ectopic glands, median ([1]; dose II 3 mg/kg, N = 34): 2.7
Grade 0 (% of mice) ([1]; dose II 3 mg/kg, N = 34): (15.2%)
Grade 0 (number of mice) ([1]; dose II 3 mg/kg, N = 34): 5
Grade 1 (% of mice) ([1]; dose II 3 mg/kg, N = 34): (21.2%)
Grade 1 (number of mice) ([1]; dose II 3 mg/kg, N = 34): 7
Grade 2 (% of mice) ([1]; dose II 3 mg/kg, N = 34): (57.6%)
Grade 2 (number of mice) ([1]; dose II 3 mg/kg, N = 34): 19
Grade 3 (% of mice) ([1]; dose II 3 mg/kg, N = 34): (6.1%)
Grade 3 (number of mice) ([1]; dose II 3 mg/kg, N = 34): 2
Ratio thickest myometrium/transverse uterine diameter, median ([1]; dose II 3 mg/kg, N = 34): 0.18
Ratio thickest myometrium/uterine wall, median ([1]; dose II 3 mg/kg, N = 34): 0.54
Ratio thinnest myometrium/uterine wall, median ([1]; dose II 3 mg/kg, N = 34): 0.19
Ratio thinnest/thickest myometrium, median ([1]; dose II 3 mg/kg, N = 34): 0.23
Spread Diffuse (number of mice) ([1]; dose II 3 mg/kg, N = 34): 16.4
Spread Focal (number of mice) ([1]; dose II 3 mg/kg, N = 34): 11
Spread None (% of mice) ([1]; dose II 3 mg/kg, N = 34): (15.2%)
Spread None (number of mice) ([1]; dose II 3 mg/kg, N = 34): 5
Odds ratio, incidence of grade 0/1 vs grade 2/3 adenomyosis, axitinib vs CMC-only ([1]; pooled dose I + II vs placebo, p=0,048): 1.33
Reduction of adenomyosis severity index compared to placebo-treated mice [2]: 48%
Down-regulation of all VEGF receptors (1-3), as well as VEGF-A and VEGF ([3]; dose I axitinib, p<0.05): more than 60%
Decrease of expression of endothelial cell marker CD31 ([3]; dose I axitinib, p=0.06): 85%
Down-regulation of VEGF-R1 expression ([3]; dose II axitinib, p=0.003): 63%
Decrease of expression of endothelial cell marker CD31 ([3]; dose II axitinib, p=0.04): 85%

O=C(O)/C=C/c1ccc(Cn2ccnc2)cc1 [Ozagrel]
Myometrial infiltration [4]: suppressed myometrial infiltration

CCN(CC)CCNC(=O)c1c(C)[nH]c(/C=C2\C(=O)Nc3ccc(F)cc32)c1C [Sunitinib]
Uptake in uterine tissue after intra-uterine injection ([5]; 1% and 0.1% of systemic dose, 4 h and 24 h after injection): uptake throughout the myometrium
Toxic effects when delivered locally ([5]; mouse, in vivo): without any toxic effects

CO[C@@H]1[C@H](OC(=O)NC(=O)CCl)CC[C@]2(CO2)[C@H]1[C@@]1(C)O[C@@H]1CC=C(C)C [TNP-470]
Development of signs of uterine adenomyosis ([6]; treatment from one day after pituitary grafting until week 13): did not develop signs of uterine adenomyosis
Mean surface area of blood vessels in the endometrium, relative to control group ([6]; treatment until week 13): 60.5%

CC/C(=C(\c1ccccc1)c1ccc(OCCN(C)C)cc1)c1ccccc1 [Tamoxifen, tamoxifen]
Fibrosis surrounding the adenomyosis affected areas (CD-1 mice; H&E and PTAH staining, tamoxifen-treated group): No signs of fibrosis
Weight, Median (CD-1 mice; tamoxifen 1 mg/kg oral day 2-5 after birth, sacrificed after six weeks, n = 6): 25.2
Adenomyosis No (% of mice) (CD-1 mice; [12]): (0%)
Adenomyosis No (number of mice) (CD-1 mice; [12]): 0
Adenomyosis Yes (% of mice) (CD-1 mice; [12]): (100%)
Adenomyosis Yes (number of mice) (CD-1 mice; [12]): 6
Adenomyosis Yes (% of mice) (CD-1 mice; tamoxifen 1 mg/kg oral day 2-5 after birth, six weeks, n = 6, listed as tamoxifen): 100%
Ectopic glands, median (CD-1 mice; [13]): 7.5
Grade 0 (% of mice) (CD-1 mice; [13]): (0%)
Grade 0 (number of mice) (CD-1 mice; [13]): 0
Grade 1 (% of mice) (CD-1 mice; [13]): (0%)
Grade 1 (number of mice) (CD-1 mice; [13]): 0
Grade 2 (% of mice) (CD-1 mice; [13]): (100%)
Grade 2 (number of mice) (CD-1 mice; [13]): 6
Grade 3 (% of mice) (CD-1 mice; [13]): (0%)
Grade 3 (number of mice) (CD-1 mice; [13]): 0
Grade of adenomyosis developed by all mice (CD-1 mice; [13]): grade 2
Microvessel density, median, Ectopic endometrium (CD-1 mice; [13]): 4.8
Microvessel density, median, Endometrium (CD-1 mice; [13]): 5.9
Microvessel density, median, Myometrium (CD-1 mice; [13]): 3.0
Ratio thickest myometrium/thickest uterine wall (α-SMA) (CD-1 mice; [13]): 0.43
Ratio thinnest myometrium/thickest myometrium (α-SMA) (CD-1 mice; [13]): 0.19
Ratio thinnest myometrium/thinnest uterine wall (α-SMA) (CD-1 mice; [13]): 0.18
Spread Diffuse (% of mice) (CD-1 mice; [13]): (66.7%)
Spread Diffuse (number of mice) (CD-1 mice; [13]): 4
Spread Focal (% of mice) (CD-1 mice; [13]): (33.3%)
Spread Focal (number of mice) (CD-1 mice; [13]): 2

bevacizumab
MVD and the expression of VEGF [7]: decreased
